Results on nine compounds are retold here after patent publication US10213416B2, “Substituted benzoxazolone derivatives as acid ceramidase inhibitors, and their use as medicaments” (FONDAZIONE ISTITUTO ITALIANO DI TECNOLOGIA, priority 2014, dated 2019).

“Also recorded” adds a separate entry of the source.

The subject of assay [1] is MAG-hydrolysing enzymes (monoacylglycerol lipase (MGL), hormone-sensitive lipase (HSL), endothelial lipase). The assay can be described thus: MAG-hydrolysing activity ex vivo in mouse tissues after systemic administration (LC-MS based assay). To be noted: mice, 10 mg-kg-1 intraperitoneal, measured 3 h after injection; brain, liver, fat and heart. On the procedure: (§1) Specifically, the compound of Example 1 was tested for its ability to inhibit the hydrolytic degradation of diacylglycerols (DAG) and monoacylglycerols (MAG) in live mice. DAG and MAG hydrolysis is catalyzed by multiple serine lipases, including diacylglycerol lipase (DGL), monoacylglycerol lipase (MGL), hormone-sensitive lipase (HSL), and endothelial lipase. Thus, by monitoring the effects of compound of Example 1 on MAG-hydrolysing activity as well as DAG and MAG levels ex vivo, we gain important information as to the ability of the compound to interfere with those lipases in a physiologically relevant setting.
Specifically, FIG. 1 evidences the effect of Example 1 or vehicle (DMSO) on MGL activity in brain, liver, fat and heart. MAG-hydrolysing activity was measured 3 h after intraperitoneal injection of compound of Example 1 (10 mg-kg-1). Results are expressed as mean±s.e.m. (n=5). […] The levels of MAGs were quantified after 3 hours after intraperitoneal injection of compound of Example 1 (10 mg-kg-1). Specifically, levels of 16:0 MAG, 18:0 MAG, 18:1 MAG, 22:4 MAG, 22:6 MAG were measured in the brain (a); levels of 16:0 MAG, 18:0 MAG, 18:1 MAG, 22:4 MAG were measured in the liver (b), in fat (c) and in the heart (d). Results are expressed as mean±s.e.m. (n=5).
Tissue was homogenized in ice-cold Tris-HCl (50 mM, pH7.5, 10 vol) containing sucrose (0.32 M). […]

Assay [2] deals with human (hAC) acid ceramidase (Homo sapiens (Human), UniProt Q13510). The assay can be described thus: Fluorescent-based in vitro assay of acid ceramidase inhibition. Format: biochemical. The note with it: human acid ceramidase-enriched lysosomal lysate from HEK293 cells, fluorogenic probe 5 μM, pH 4.5. An excerpt:
To evaluate the potency of the compounds towards acid ceramidase, a fluorescence-based in vitro assay previously described in literature (Bedia C et al., ChemBioChem, 2007, 8, 642-648) was implemented and optimized. This assay is based on a “fluorogenic probe” containing a coumarin group and a sphingoid base moiety (see figure below), which is not fluorescent in itself, but upon enzymatic cleavage by acid ceramidase followed by a chemical transformation liberates the fluorescent molecule umbelliferone (7-hydroxychromen-2-one). By quantifying the generation of umbelliferone using a fluorescence plate-reader, the level of enzymatic activity can be measured, whereby IC50 values of compounds that inhibit this activity can be generated.
Lysosomal lysate, enriched with acid ceramidase, was prepared from a cell line stably expressing human acid ceramidase. In the assay, the fluorogenic probe (or substrate) serves as a ceramide-analogue, which is recognized and hydrolyzed at the amide bond by acid ceramidase from the enriched lysate to yield the fatty acid and coumarinic aminodiol.
A lysosomal human acid ceramidase protein preparation was obtained from HEK293 cells stably expressing acid ceramidase suspended in 20 mM Tris HCl (pH 7.5) with 0.32 M sucrose. The cell solution was sonicated and centrifuged at 800×g for 15 min at 4° C. Supernatants were then centrifuged at 12,000×g for 30 min at 4° C. Pellets were re-suspended in phosphate-buffered saline (PBS) pH 7.4 and subjected to two freeze-thaw cycles at −80° C. The suspension was finally centrifuged at 105,000×g for 1 h at 4° C. and protein concentration was measured in the supernatant with bicinchinonic-acid based protein assay.
The assay was performed in Optiplate 96-wells black plates, with each reaction well containing a mixture of 25 mM sodium acetate buffer pH 4.5 and a fixed amount of protein (2 μg) in a volume of 85 μL. After 30 min of pre-incubation with test compounds (diluted 20× from DMSO stock solutions at different concentrations), the fluorogenic probe was added (diluted 20× from EtOH stock solution, final concentration 5 μM). After incubation for 3 h at 37° C., the reactions were stopped with 50 μl of methanol and 100 μl of a 2.5 mg/mL NaIO4 fresh solution in 100 mM Glycine/NaOH pH 10.6. The plate was incubated at 37° C. for 2 h in the dark and fluorescence intensities were measured at excitation/emission wavelengths of 360/446 nm. Negative control samples consisted of the same incubation mixture in the absence of protein extracts. The IC50 values or percent of inhibition, at the indicated concentration, of selected compounds described in the invention are reported in Table 2.

The subject of assay [3] is levels of MAGs in brain, liver, fat and heart. The assay can be described thus: Levels of monoacylglycerols (MAG) in mouse tissues after systemic administration. Format: in vivo. The note with it: mice, 10 mg-kg-1 intraperitoneal, 3 hours after injection. On the procedure:
as §1
Specifically, FIG. 1 evidences the effect of Example 1 or vehicle (DMSO) on MGL activity in brain, liver, fat and heart. MAG-hydrolysing activity was measured 3 h after intraperitoneal injection of compound of Example 1 (10 mg-kg-1). Results are expressed as mean±s.e.m. (n=5). […] The levels of MAGs were quantified after 3 hours after intraperitoneal injection of compound of Example 1 (10 mg-kg-1). Specifically, levels of 16:0 MAG, 18:0 MAG, 18:1 MAG, 22:4 MAG, 22:6 MAG were measured in the brain (a); levels of 16:0 MAG, 18:0 MAG, 18:1 MAG, 22:4 MAG were measured in the liver (b), in fat (c) and in the heart (d). Results are expressed as mean±s.e.m. (n=5). […]

Sequence of human (hAC) acid ceramidase (Q13510 143-395): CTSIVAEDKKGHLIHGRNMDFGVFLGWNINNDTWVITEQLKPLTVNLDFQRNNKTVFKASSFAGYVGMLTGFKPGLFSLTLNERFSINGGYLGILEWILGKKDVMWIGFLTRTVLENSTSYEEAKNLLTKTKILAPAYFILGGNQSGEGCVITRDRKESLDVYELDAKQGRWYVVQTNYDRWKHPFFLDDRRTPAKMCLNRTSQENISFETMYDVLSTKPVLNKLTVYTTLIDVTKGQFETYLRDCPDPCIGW
Sequence of human (hAC) acid ceramidase (Q13510 22-142): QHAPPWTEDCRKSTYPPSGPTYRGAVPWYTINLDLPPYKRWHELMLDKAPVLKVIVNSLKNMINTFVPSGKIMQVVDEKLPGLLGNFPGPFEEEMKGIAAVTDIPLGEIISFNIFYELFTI

By IC50 is commonly meant the concentration at which inhibition is half-maximal. Read a high IC50 as weaker potency. For `O=C(NCCCCCc1ccccc1)n1c(=O)oc2cc(-c3ccc(F)cc3)ccc21` [Example 1, 6-(4-fluorophenyl)-2-oxo-N-(5-phenylpentyl)-1,3-benzoxazole-3-carboxamide], in assay [1], the “MAG-hydrolysing activity (MGL activity)” value is on record as “lack of effect; also recorded: did not cause inhibition; also recorded: no inhibitory activity”. Also, in assay [2], half-maximal inhibition (IC50) was put at 75 ± 20 nM. In assay [3], the “levels of the most representative MAGs (16:0, 18:0, 18:1, 22:4, 22:6 MAG)” value is reported as “lack of effect; also recorded: remained unchanged”.
Take `O=C(NCCCCCCc1ccccc1)n1c(=O)oc2ccc(-c3ccc(C(F)(F)F)cc3)cc21` [Example 3, 2-oxo-N-(6-phenylhexyl)-5-[4-(trifluoromethyl)phenyl]-1,3-benzoxazole-3-carboxamide]: the IC50 in assay [2] was found to be 111 ± 30 nM.
In assay [2], `O=C(NCCCCCCc1ccccc1)n1c(=O)oc2c(-c3ccc(F)cc3)cccc21` [Example 4, 7-(4-fluorophenyl)-2-oxo-N-(6-phenylhexyl)-1,3-benzoxazole-3-carboxamide] gave an IC50 of 125 ± 79 nM.
`COc1ccc(C(=O)c2ccc3c(c2)oc(=O)n3C(=O)NCCCCCc2ccccc2)cc1` [Example 6, 6-(4-methoxybenzoyl)-2-oxo-N-(5-phenylpentyl)-1,3-benzoxazole-3-carboxamide] had an IC50 in assay [2] of 26 ± 3 nM. This IC50 lies about 4.8-fold lower than the previous one.
Take `COc1ccc(C(=O)c2ccc3oc(=O)n(C(=O)NCCCCCCc4ccccc4)c3c2)cc1` [Example 8, 5-(4-methoxybenzoyl)-2-oxo-N-(6-phenylhexyl)-1,3-benzoxazole-3-carboxamide]: in assay [2], the IC50 came to 46 ± 31 nM.
`O=C(c1ccc(F)cc1)c1cccc2c1oc(=O)n2C(=O)NCCCCCc1ccccc1` [Example 9, 7-(4-fluorobenzoyl)-2-oxo-N-(5-phenylpentyl)-1,3-benzoxazole-3-carboxamide] registered an IC50 in assay [2] of 66 ± 15 nM.
Still for that read-out and setting: the same measure for `CCCCOCCCNC(=O)n1c(=O)oc2cc(-c3ccc(F)cc3)ccc21` [Example 13, N-(3-butoxypropyl)-6-(4-fluorophenyl)-2-oxo-1,3-benzoxazole-3-carboxamide]: 132 ± 5 nM; for `O=C(NCCCCCc1ccccc1)n1c(=O)oc2c(-c3ccc(F)cc3)cc(Cl)cc21` [Example 14, 5-chloro-7-(4-fluorophenyl)-2-oxo-N-(5-phenylpentyl)-1,3-benzoxazole-3-carboxamide]: 37 nM.
Same read-out and setting: the same measure for `O=C(NCCCCSc1ccccc1)n1c(=O)oc2ccc(-c3ccc(F)cc3)cc21` [Example 15, 5-(4-fluorophenyl)-2-oxo-N-(4-phenylsulfanylbutyl)-1,3-benzoxazole-3-carboxamide]: 240 ± 58 nM.
